Assay [1] relates to aging-related cognitive decline. Put plainly: Daily subcutaneous GnRH therapy: cognition. The class given is in vivo, C57BL/6 mice. Conditions: old MBH-ctrl and MBH-IKK-β mice; peripheral (s.c.) GnRH daily, 5 weeks; FIG. 6i. The procedure: (§1) For animal GnRH therapy, mice were subcutaneously injected with GnRH (Sigma) at the dose of 2 ng per mouse on a daily basis for a period of 5-8 weeks. The Institutional Animal Care and Use Committee at the Albert Einstein College of Medicine approved all the procedures. Body weight and food intake were measured regularly using a laboratory scale. The grip test was performed to measure muscle endurance using the method as similarly described in the literature^36,37, using a homemade square grid with a small mesh size to allow mice to hang for longer time. In brief, a mouse was lifted by the tail and placed on a homemade square grid (1-cm mesh size). The grid was then inverted 30.5 cm over a soft pad, and the mouse was allowed to hang by paws for a maximum of 5 min. The time that the mouse was able to hang was recorded during a 5-min test period.
Cognitive behavioral tests. […]
Hidden-platform training. […] Mice were expected to find the location of the invisible platform, and measured for latency to reach the platform, distance travelled to reach the platform, path efficiency, time spent in and distance travelled in each quadrant as well as total distance and mean swim speed.
Probe trial. […] Mice were measured for the amount of time spent in all quadrants, distance and number of times that mice crossed the location of the former platform, and total distance and mean swim speed. […]

Assay [2] deals with BrdU-labelled cells in the MBH and dentate gyrus. Put plainly: BrdU labelling survival assay with i.c.v. GnRH in old mice. It is filed as in vivo. As to conditions: old C57BL/6 mice; GnRH 1 ng per day i.c.v.; 7 days of daily BrdU injections, thirty-day tracking; FIG. 6d, e. The procedure:
(§2) Immunostaining, histology and western blot. Mice under anaesthesia were perfused with 4% paraformaldehyde, and brains were removed, post-fixed in 4% paraformaldehyde, and infiltrated in 20-30% sucrose. Brain sections were made at 10-μm thickness via a cryostat, blocked with serum, penetrated with Triton-X 100, treated overnight at 4° C. with primary antibody, followed by reaction with fluorescence-conjugated secondary antibody (Jackson), and imaged under a confocal microscope. For BrdU staining, sections were pre-treated with 1 M HCl for 30 min at 37° C., followed by 5-min treatment with 0.1 M sodium borate, pH 8.5. Primary antibodies included rabbit anti-Iba-1 (Wako), rabbit anti-GFAP (Millipore), mouse anti-TNF-α (Abcam), mouse anti-NeuN (Millipore), and goat anti-Cre antibody (Santa Cruz). For Nissl staining, freshly isolated mice brains were fixed in 4% paraformaldehyde in PBS for overnight at 4° C. The fixed whole brains were then subjected to cryosectioning coronally, and frozen sections were stained to detect Nissl body by using the NovaUltra Nissl stain kit (IHCWORLD) according to the manufacturer's instruction.
(§3) Serial brain sections across the MBH were made at 20 μm thickness, and every five sections were represented by one section with staining and cell counting. […]

The subject of assay [3] is neurogenesis in the MBH and dentate gyrus. Put plainly: BrdU labelling neurogenesis assay with i.c.v. GnRH in old mice. It is filed as in vivo. As to conditions: old C57BL/6 mice; GnRH 1 ng per day i.c.v. (third ventricle); single BrdU injection, 7 days; vs vehicle; FIG. 6a-c. The procedure: as §2, §3
For orientation: Dividing cells build labelled thymidine or BrdU into new DNA.

In assay [4] the test system is aging physiology and histology. Put plainly: Daily subcutaneous GnRH therapy: aging physiology and histology (muscle endurance, skeletal muscle fibers, dermal thickness). The class given is in vivo, C57BL/6 mice. The procedure: as §1
Tissue histology. Skeletal muscles (quadriceps) and dorsal skin were dissected from mice, fixed in 10% neutralized formalin at 4° C. overnight, and embedded into paraffin. Paraffin sections were prepared at 5-μm thickness and subjected to haematoxylin and eosin staining. Images were collected using an Axioskop II light microscope (Zeiss) and analyzed using Image J.

Ends that are not written are not given here.

As to “gonadotropin-releasing hormone (QHWSYGLRPG; ends and bridges not checked; UniProt P01148 24-33, looked up) [GnRH, gonadotropin-releasing hormone (GnRH), obtained from Sigma]”, the aging-related cognitive decline result in assay [1] is reported as “amelioration of aging-related cognitive decline”. Further, in assay [2], the “survival of BrdU-labelled cells in MBH and dentate gyrus” value is “significantly survived”. Moreover, in assay [3], the “aging-diminished neurogenesis (BrdU-labelled cells in hypothalamus and hippocampus)” value is listed as “substantially reversed”. In assay [4] (MBH-IκB-α mice treated with GnRH, data not shown), the anti-aging phenotype result is reported as “did not further enhance the anti-aging phenotype”. Also, the “pro-aging phenotype (muscle endurance, muscle fibers, dermal thickness)” value in assay [4] (old MBH-IKK-β mice, GnRH 2 ng per mouse s.c. daily, 5 weeks, FIG. 6f-h) is “abrogated the pro-aging phenotype”. The “magnitude of aging histology (muscle endurance, muscle fibers, dermal thickness)” value in assay [4] (old MBH-ctrl mice, GnRH 2 ng per mouse s.c. daily, 5 weeks, FIG. 6f-h) is reported as “reduced the magnitude of aging histology”.

Values taken from US20160074467A1, “TREATMENT OF AGING EFFECTS BY GONADOTROPIN-RELEASING HORMONE, NEUROGENESIS OR BRAIN IKK BETA/NF-KAPPAB INHIBITION” (ALBERT EINSTEIN COLLEGE OF MEDICINE, INC., priority 2013, published 2016).
